Laboratory results: patent US20150057447A1, “METHOD OF PRODUCING N-PHENYL-N'-PHENYLSULFONYL PIPERAZINE DERIVATIVE AND INTERMEDIATE THEREOF” (priority 2012, published 2015)

Experiments:
Type in all cases: physicochemical
[1] = Evaluation of sublimation (heating under reduced pressure, flask with condenser tube)
Procedure: 5-Chloro-2-(1,3-oxazole-2-yl)phenol (I-3, 3.01 g, 15.4 mmol) which was obtained from the method described in Patent Document 6 was measured in a round-bottomed flask with condenser tube filled with −15° C. cooling liquid, and heated at 40° C. for 6 hours under the reduced pressure (16˜18 mmHg). After 6 hours, 0.02 g of colorless solids were adhered to the condenser tube. The colorless solids were measured by ^1H-NMR (DMSO-d6), it was confirmed to be 5-chloro-2-(1,3-oxazole-2-yl)phenol (I-3).

[2] = Evaluation of sublimation by measuring TG/DTA; settings: for sublimation (conclusion from TG/DTA): open system
Procedure: Evaluation of Sublimation by Measuring TG/DTA
(1) 5-Chloro-2-(1,3-oxazole-2-yl)phenol (I-3, 5 mg) which was obtained from the method described in Patent Document 6 was measured, and an aluminum pan was stuffed with it and measured in the open system. The measurement conditions are as follows.
Device: TG/DTA 7200 by SII nano technology Measurement temperature range: 30° C.-200° C. Heating rate: 10° C./minute Purge gas: N2 200 mL/minute
(2) 5-Chloro-2-(1,3-oxazole-2-yl)phenol (I-3, about 10 mg) which was obtained from the method described in Patent Document 6 was measured, and an aluminum pan was stuffed with it and measured in the open system. The measurement conditions are as follows.
Device: TG/DTA 7200 by SII nano technology Measurement temperature, range: 40° C. Measurement time: 720 minutes Purge gas: N2 200 mL/minute
(3) Magnesium bis[5-chloro-2-(1,3-oxazole-2-yl)phenolate (I-2, 5 m g) which was obtained from Example 1(1) was measured, and an aluminum pan was stuffed with it and measured in the open system. The measurement conditions are as follows.
Device: TG/DTA 7200 by SII nano technology Measurement temperature program: 30° C.-200° C. Rate of temperature increase: 10° C./minute Purge gas: N2 200 mL/minute

[3] = Evaluation of hygroscopicity by measuring moisture adsorption-desorption isotherm; settings: 25° C.; for ratio of mass increase, moisture desorption isotherm: 0% RH; for ratio of mass increase relative to the mass at 0% RH, moisture adsorption isotherm: 95% RH
Text: Moisture adsorption-desorption isotherm is one of means for measuring the adsorption or desorption of moisture. It is a method of measuring the mass change as a function of the relative humidity at constant temperature, and under the conditions where adsorption or desorption is essentially occurring independently of time (equilibrium conditions). Moisture adsorption-desorption isotherm is obtained by plotting relative humidities versus the ratio(%) of the mass increase compared to the mass when the relative humidity of 0%. Accordingly, it is possible to obtain the information about hygroscopicity or dehumidifying nature of the sample.
Moisture adsorption-desorption isotherm of the compounds specified in following (1) to (4) obtained from corresponding examples were measured by the following conditions.
(Operating Method) About 50 mg of the sample was weighted in the mesh stainless-steel sample container, then it was dried at the relative humidity (hereinafter, RH) 0% until the mass change doesn't happen in the device. Temperature and humidity were controlled by the following conditions, and dynamic gravimetric measurement was conducted. Measurement temperature: 25° C. Measurement humidity range: adsorption 0˜95% RH, desorption 95˜0% RH, 5% RH interval Measurement condition: Isotherm condition Herein, isotherm condition means that measurement is move on to next humidity point when the mass change is no longer observed after minimum waiting time or when the equilibrium of mass was not observed until maximum waiting time under constant humidity. The minimum waiting time for equilibrium determination at each humidity: 10 minutes The maximum waiting time for equilibrium determination at each humidity: 2 hours Humidity control: nitrogen and humidification device, 250 mL/minutes (1) Result of the moisture adsorption-desorption isotherm for magnesium bis[5-chloro-2-(1,3-oxazole-2-yl)phenolate] In measuring the moisture adsorption isotherm, in the case of 95% RH, the ratio of mass increase was 2% relative to the mass at 0% RH. In measuring the moisture desorption isotherm, in the case of 0% RH, the ratio of mass increase was 0%. (2) Result of the moisture adsorption-desorption isotherm for calcium bis[5-chloro-2-(1,3-oxazole-2-yl)phenolate] In measuring the moisture adsorption isotherm, in the case of 95% RH, the ratio of mass increase was 3% relative to the mass at 0% RH. In measuring the moisture desorption isotherm, in the case of 0% RH, the ratio of mass increase was 0%.

colorless solids adhered to the condenser tube ([1]; 3.01 g heated at 40° C. for 6 hours under reduced pressure (16~18 mmHg), condenser at -15° C.) [g] | sublimation (conclusion from reduced pressure heating test) ([1]; 40° C., 6 hours, 16~18 mmHg) | weight loss (TG/DTA, constant temperature) ([2]; 40° C., 720 minutes, solid state, open aluminum pan, N2 200 mL/minute) [%] | weight loss (TG/DTA) ([2]; observed at 40-85° C., range 30° C.-200° C., heating rate 10° C./minute, open aluminum pan, N2 200 mL/minute) [%] | Molecule | sublimation (conclusion from TG/DTA) [2] | ratio of mass increase, moisture desorption isotherm [3] [%] | ratio of mass increase relative to the mass at 0% RH, moisture adsorption isotherm [3] [%] | melting and weight loss (TG/DTA) ([2]; about 30° C.-about 180° C., program 30° C.-200° C., 10° C./minute, N2 200 mL/minute)
0.02 | has sublimation | 1.6 | 0.38 | Oc1cc(Cl)ccc1-c1ncco1 [Compound I-3, 5-chloro-2-(1,3-oxazole-2-yl)phenol] | has sublimation |  |  | 
 |  |  |  | calcium bis[5-chloro-2-(1,3-oxazole-2-yl)phenolate] [Compound I-7] |  | 0 | 3 | 
 |  |  |  | magnesium bis[5-chloro-2-(1,3-oxazole-2-yl)phenolate] [Compound I-2] | doesn't have sublimation | 0 | 2 | not observed
